Laboratory results published in patent US11739043B2, “Illudin analogs, uses thereof, and methods for synthesizing the same” (Lantern Pharma Inc., priority 2018, dated 2023).

Legend:
Assay type in all cases: cell-based
OVCAR-3 cell line = experiment: Cytotoxicity / growth inhibition, 96-well CellTiter-Glo assay, OVCAR-3; settings: for GI50: Homo sapiens, 72 h, OVCAR-3, ovarian cancer cell line, 3-day assay, read-out: GI50, concentration that inhibits 50% cell growth
Protocol: (§1) Cytotoxicity. The growth-inhibition activities of both purified UMAF (also referred to as UMAF in this example) optical enantiomers were studied in a standard 96-well cell-based assay using representative cell lines from prostate, ovarian, and lung cancers. The concentrations that cause a 50% inhibition of cell growth (GI50) were determined using a luminescent vital assay reagent (CellTiter-Glo®, Promega Corporation). The growth inhibition curves as a function of UMAF concentration are shown from a representative assay. […] The GI50 concentrations of the two forms for the six cell lines are shown below.

SK-OV3 cell line = experiment: Cytotoxicity / growth inhibition, 96-well CellTiter-Glo assay, SK-OV3; settings: for GI50: Homo sapiens, SK-OV-3, 72 h, SK-OV3, ovarian cancer cell line, 3-day assay, read-out: GI50, concentration that inhibits 50% cell growth
Protocol: as §1

DU145 cell line = experiment: Cytotoxicity / growth inhibition, 96-well CellTiter-Glo assay, DU145; settings: for GI50: Homo sapiens, DU-145, 72 h, DU145, prostate cancer cell line, 3-day assay, read-out: GI50, concentration that inhibits 50% cell growth
Protocol: as §1

HCC827 cell line = experiment: Cytotoxicity / growth inhibition, 96-well CellTiter-Glo assay, HCC827; settings: Homo sapiens, 72 h; HCC827, lung cancer cell line, 3-day assay; read-out: GI50, concentration that inhibits 50% cell growth
Protocol: as §1

H1975 cell line = experiment: Cytotoxicity / growth inhibition, 96-well CellTiter-Glo assay, H1975; settings: for GI50: Homo sapiens, NCI-H1975, 72 h, H1975, lung cancer cell line, 3-day assay, read-out: GI50, concentration that inhibits 50% cell growth
Protocol: as §1

PC3 cell line = experiment: Cytotoxicity / growth inhibition, 96-well CellTiter-Glo assay, PC3; settings: Homo sapiens, PC-3, 72 h; PC3, prostate cancer cell line, 3-day assay; read-out: GI50, concentration that inhibits 50% cell growth
Protocol: as §1

Structure (SMILES)	GI50 (OVCAR-3 cell line) [nM]	toxicity compared between the two enantiomers (growth inhibition curves) (OVCAR-3 cell line; OVCAR3, FIG. 6)	GI50 (SK-OV3 cell line) [nM]	toxicity compared between the two enantiomers (growth inhibition curves) (SK-OV3 cell line; SK-OV3, FIG. 7)	toxicity compared between the two enantiomers (growth inhibition curves) (DU145 cell line; DU145, FIG. 4)	GI50 (DU145 cell line) [nM]	GI50 (HCC827 cell line) [nM]	toxicity compared between the two enantiomers (growth inhibition curves) (H1975 cell line; H1975, FIG. 9)	GI50 (H1975 cell line) [nM]	GI50 (PC3 cell line) [nM]
CC1=C(CN(O)C(N)=O)C2=C(C)C3(CC3)[C@](C)(O)C(=O)C2=C1 [(+)-UMAF, (+)-hydroxyureamethylacylfulvene]	254	more toxic	554	more toxic	more toxic	34.8	897	more toxic	287	1120
CC1=C(CN(O)C(N)=O)C2=C(C)C3(CC3)[C@@](C)(O)C(=O)C2=C1 [(−)-UMAF, (−)-hydroxyureamethylacylfulvene]	1820	–	2400	–	–	506	1640	–	6320	824
